Laboratory results reported in patent US9676997B2, “Compositions and methods for stabilizing luminogenic substrates” (Promega Corporation, priority 2014, dated 2017).

Assays:
Assay type in all cases: physicochemical
[1] = Stability of 1.25 mM coelenterazine-h-h in 50% ethanol and 50% propylene glycol with or without 225 mM ATT, HPLC and Arrhenius plots; settings: 225 mM ATT, over time at different temperatures
Description: (§1) The stability of coelenterazine-h-h in the presence and absence of ATT was measured over time at different temperatures. Specifically, 1.25 mM coelenterazine-h-h was present in a solution of 50% ethanol and 50% propylene glycol (i.e., the solution without ATT) or a solution of 50% ethanol and 50% propylene glycol with 225 mM ATT (i.e., the solution with ATT). These two solutions were incubated at −20° C., room temperature (RT), 40° C., or 60° C. and analyzed at 0 days, 1 day, 3 days, 7 days, 15 days, and 30 days.
Following incubation, high performance liquid chromatography (HPLC) was utilized to identify the components of the respective solutions at each time point. Specifically, an Agilent 1100 HPLC instrument was used and equipped with a quaternary pump, thermostatted autosampler and column compartment, and a G1311B diode-array detector. The column used was a Synergi-MAX-RP (Phenomenex, Torrance, Calif.) 100 AÅ 50×4.6 2.5 μm. The run on the HPLC was a gradient run with 0.1% TFA in water and acetonitrile. Absorbance was measured at 262 nanometers (nm). Standards of coelenterazine-h-h and its known degradants were run to confirm both the retention time and absorbance trace. 5 μl of each solution was injected and the retention time of coelenterazine-h-h at room temperature was 5.5 minutes.
(§2) The results of the HPLC analysis are shown below in Tables 7 and 8 and FIGS. 3A and 3B, in which the values are reported as relative peak area percentage at 262 nm (i.e., the lamba max of the substrate). […] In each of FIGS. 3A and 3B, diamond is 1.25 mM coelenterazine-h-h incubated over time with or without 225 mM ATT, respectively, at −20° C., triangle is 1.25 mM coelenterazine-h-h incubated over time with or without 225 mM ATT, respectively, at room temperature (RT), star is 1.25 mM coelenterazine-h-h incubated over time with or without 225 mM ATT, respectively, at 40° C., and cross is 1.25 mM coelenterazine-h-h incubated over time with or without 225 mM ATT, respectively, at 60° C.
From the HPLC analysis, the half-life of coelenterazine-h-h in the presence of ATT at 60° C. was calculated to be 10 days while the half-life of coelenterazine-h-h in the absence of ATT at 40° C. and 60° C. was calculated to be 27 days and 8 days, respectively (see Table 9 below).
Additionally, Arrhenius plots were generated for coelenterazine-h-h in the presence and absence of ATT to calculate the half-life of coelenterazine-h-h at various temperatures. The Arrhenius equation is as follows: […]
In FIG. 11, the slope was −10740.9, the intercept was 30.0575, and R^2 was 0.9967.
In FIG. 12, the […], and R^2 was 0.9648.

[2] = Stability of 1.25 mM furimazine in DMSO with or without 225 mM ATT, HPLC; settings: room temperature, 40° C., and 60° C., in the presence of light
Description: To further examine the stabilization of furimazine by ATT, stability of furimazine was measured at room temperature, 40°, and 60° C. in a different organic solvent, namely DMSO. This study was performed in the presence of light.
Specifically, a 2× stock solution of ATT in DMSO was prepared, in which the final concentration of ATT was 64.4 mg/mL. A 2× stock solution of furimazine in DMSO was also prepared, in which the final concentration of furimazine was 0.95 mg/mL. In one vial, the 2× ATT stock solution was diluted 1:1 in the 2× furimazine stock solution to create a solution containing 225 mM ATT and 1.25 mM furimazine. In a second vial, furimazine was diluted 1:1 in DMSO to create a control solution without the additive ATT (i.e., “no additive furimazine” control) and containing 1.25 mM furimazine.
The content of each vial was dispensed into separate, clear HPLC vials with insert and these HPLC vials were placed at room temperature (i.e., about 20° C.), 40° C., and 60° C. There was one HPLC vial per time point for each temperature.
Stability was measured by HPLC with 5 μL injection and detection at 262 nm. In each chromatogram, the area percentage of furimazine was determined.

[3] = Stability of 1.25 mM coelenterazine-h in 50% ethanol and 50% propylene glycol with or without 225 mM ATT, HPLC and Arrhenius plots; settings: 225 mM ATT, over time at different temperatures
Description: as §1, with “stability of coelenterazine-h in the” for “stability of coelenterazine-h-h in the”, “1.25 mM coelenterazine-h was present” for “1.25 mM coelenterazine-h-h was present”, “analyzed at for 0 days,” for “analyzed at 0 days,”
Following incubation, high performance liquid chromatography (HPLC) was utilized to identify the components of the respective solutions at each time point. Specifically, an Agilent 1100 HPLC instrument was used and equipped with a quaternary pump, thermostatted autosampler and column compartment, and a G1311B diode-array detector. The column used was a Synergi-MAX-RP (Phenomenex, Torrance, Calif.) 100 AÅ 50×4.6 2.5 μm. The run on the HPLC was a gradient run with 0.1% TFA in water and acetonitrile. Absorbance was measured at 262 nanometers (nm). Standards of coelenterazine-h and its known degradants were run to confirm both the retention time and absorbance trace. 5 μl of each solution was injected and the retention time of coelenterazine-h was 4.7 minutes at room temperature.
as §2, with “4” for “7”, “5” for “8”, “2A” for “3A”, “2B,” for “3B,”, “coelenterazine-h” for “coelenterazine-h-h”
From the HPLC analysis, the half-life of coelenterazine-h in the presence of ATT at 40° C. and 60° C. was calculated to be 20 days and 5 days, respectively, while the half-life of coelenterazine-h in the absence of ATT at 20° C., 40° C. and 60° C. was calculated to be 24 days, 7.5 days and 2 days, respectively (see Table 6 below).
Additionally, Arrhenius plots were generated for coelenterazine-h in the presence and absence of ATT to calculate the half-life of coelenterazine-h at various temperatures. The Arrhenius equation is as follows: […]
In FIG. 9, the slope was −8131.2, the intercept was 22.6157, and R^2 was 0.9994.
In FIG. 10, the slope was −7310.53, the intercept was 21.4386, and R^2 was 0.9964.

With `Cc1n[nH]c(=S)[nH]c1=O` [ATT, 6-methyl-3-thioxo-3,4-dihydro-1,2,4-triazin-5(2H)-one] the “stabilization of coelenterazine-h-h against decomposition” value [1] was “stabilized coelenterazine-h-h against decomposition over time at different temperatures”, the “stabilization of furimazine in DMSO against decomposition” value [2] was “stabilized furimazine in DMSO against decomposition at different temperatures” and the “stabilization of coelenterazine-h against decomposition” value [3] was “stabilized coelenterazine-h against decomposition over time at different temperatures”.
